In series [1] the target is T1, human LPA1 (Homo sapiens, UniProt Q92633).
T1 construct: expressed in transfected cells; host or cells: CHO-K1
As to the kind of experiment: In vitro LPA1 calcium flux antagonist assay. Type of series: cell-based. The conditions noted are these: CHO-K1 cells overexpressing human LPA1 and G15a, LPA challenge at EC80, FLIPR calcium mobilization. On the procedure:
CHO-K1 cells overexpressing human LPA1 and G15a were seeded at a total volume of 20 μL (15000 cells/well) into Matrigel pre-coated 384-well plates (corning −3764) and incubated at 37° C. After overnight incubation, the cells were serum starved for 4 h. Assays were performed in dye loading buffer containing 1×Fluo-8 AM (AAT Bioquest, 21080) and 2.5 mM probenecid (Thermo Fisher, 36400) in HBSS/20 mM Hepes. After cell starvation, the medium was replaced with 20 μL of dye loading buffer and incubated at 37° C. for 30 min. Then 5 μL of 5× compound titrated in dye loading buffer was added to the cells and incubated for 30 min followed by LPA challenge at EC80. Calcium mobilization was measured on a FLIPR Tetra (MDS). For LPA EC80 determination, starved cells were incubated with 20 μL of dye loading buffer for 1 h, then 5 μL of 5×LPA titrated in dye loading buffer was added to the cells. Calcium signals induced by LPA was monitors on a FLIPR.
Percentage inhibition is calculated using the following formula: […]
A general note: Calcium flux is commonly read through the fluorescence of an indicator in the cells.

The nature of series [2]: Pharmacokinetics measurements in mice. Type of series: in vivo. As to conditions: mouse; CD1 female mice, single oral 5 mg/kg, plasma, mean. On the procedure:
The PK properties of selected compounds were measured in CD1 female mice following single oral (5 mg/kg) administration.
Compounds 103 and 104 were prepared in a 1 mg/mL solution of 10% Solutol HS15 and 90%, saline for oral administrations at 5 mL/kg, respectively, and administered to 3 mice/3 groups. After dosing, blood collection was performed by dorsal metatarsal vein sampling at 0.25, 0.5, 1, 2, 4, 6, 8, 24 h, followed by centrifugation to obtain plasma. Samples were stored frozen at −80° C. prior to compound extraction and LC-MS/MS analysis. Pharmacokinetic parameters of compounds 103 and 104 in mice were calculated by standard noncompartmental modeling from the systemic plasma concentration-time profile.

Series [3] is described as follows: Pharmacokinetics measurements in rats. The series is classed as in vivo. The conditions noted are these: SD male rats, plasma; for Cl_obs / AUC(0-t) / Cmax / Tmax: mean; for bioavailability / AUC(0-t) / Cmax / Tmax: rat; for bioavailability: PO 5 mg/kg vs IV 1 mg/kg. On the procedure: The PK properties of selected compounds were measured in SD Male rats following single oral (5 mg/kg) and Intravenous Administration (1 mg/kg).
Compounds 103 and 104 were prepared in a 1 mg/mL solution of 10% Solutol HS15 and 90% saline for oral administrations at 5 mL/kg and 0.2 mg/mL solution of 10% Solutol HS15 and 90% saline for intravenous administrations at 1 mL/kg, respectively, and administered to 3 rats per group. After dosing, blood collection was performed by Jugular vein sampling (by cannula) at 0.25, 0.5, 1, 2, 4, 6, 8, 24 h, and 0.083, 0.25, 0.5, 1, 2, 4, 8, 24 h, respectively, followed by centrifugation to obtain plasma. Samples were stored frozen at −80° C. prior to compound extraction and LC-MS/MS analysis. Pharmacokinetic parameters of compounds 103 and 104 in rats were calculated by standard noncompartmental modeling from the systemic plasma concentration-time profile.

T1 sequence (Q92633 whole entry): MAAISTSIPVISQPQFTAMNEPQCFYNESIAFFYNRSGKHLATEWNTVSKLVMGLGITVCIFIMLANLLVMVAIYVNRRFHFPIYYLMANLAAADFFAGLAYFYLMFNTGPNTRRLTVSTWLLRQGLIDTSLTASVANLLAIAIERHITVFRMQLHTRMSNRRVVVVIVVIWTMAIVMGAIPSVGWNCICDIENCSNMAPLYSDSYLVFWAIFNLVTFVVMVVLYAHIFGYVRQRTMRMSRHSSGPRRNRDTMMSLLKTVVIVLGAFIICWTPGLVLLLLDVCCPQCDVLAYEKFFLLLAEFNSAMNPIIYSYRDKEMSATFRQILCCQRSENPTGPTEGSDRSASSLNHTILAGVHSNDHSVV

With `CCOc1cc(C(=O)O)c2nc(C[C@H](OC3CCCC3)[C@H](O)c3ccc(C)c(OC)c3)sc2c1` [Compound 101, 2-((2S,3R)-2-(cyclopentyloxy)-3-hydroxy-3-(3-methoxy-4-methylphenyl)propyl)-6-ethoxybenzo[d]thiazole-4-carboxylic acid], in series [1], the IC50 is < 10 nM.

As for `COc1cc(C(=O)O)c2nc(C[C@H](OC3CCCC3)[C@H](O)c3ccc(C(F)F)c(OC)c3)sc2c1` [Compound 102, 2-((2S,3R)-2-(cyclopentyloxy)-3-(4-(difluoromethyl)-3-methoxyphenyl)-3-hydroxypropyl)-6-methoxybenzo[d]thiazole-4-carboxylic acid], the IC50 in series [1] was < 10 nM.

For the compound `CCOc1cc(C(=O)O)c2nc(C[C@H](OC3CCCC3)[C@H](O)c3cc(OC)cc(OC)c3)sc2c1` [Compound 111], the 50% inhibitory concentration (IC50) in series [1] was 10 to 100 nM.

For the compound `COc1cc([C@@H](O)[C@H](Cc2cc3c(N(C)C)ccc(C(=O)O)n3n2)OC2CCCC2)cc(OC)c1C` [Compound 110], in series [1], the IC50 was > 100 nM.

As to `COCc1cc(C(=O)O)c2nc(C[C@H](OC3CCCC3)[C@H](O)c3cc(OC)c(C)c(OC)c3)sc2c1` [Compound 104, 2-((2S,3R)-2-(cyclopentyloxy)-3-(3,5-dimethoxy-4-methylphenyl)-3-hydroxypropyl)-6-(methoxymethyl)benzo[d]thiazole-4-carboxylic acid], the IC50 in series [1] was < 10 nM. Moreover, in series [2], the AUC(0-t) was determined as 6950 ng·h/mL, the Cmax came out at 3840 ng/mL and the Tmax was 15 min. In series [3] (IV 1 mg/kg), this compound came in with a Cl_obs of 8.8 mL/min/kg and an AUC(0-t) of 1900 ng·h/mL. The bioavailability in series [3] came out at 30.3%. Further, in series [3] (PO 5 mg/kg), the AUC(0-t) was determined as 2890 ng·h/mL, the Cmax amounted to 1520 ng/mL and the Tmax came out at 15 min.

In the case of `CCCc1sc(C[C@H](OC2CCCC2)[C@H](O)c2cc(OC)c(C(C)=O)c(OC)c2)nc1C(C)C(=O)O` (some centres unmarked) [Compound 114], the 50% inhibitory concentration (IC50) in series [1] lay in the range of 10 to 100 nM.

In the case of `COc1cc([C@@H](O)[C@H](Cc2nc3c(C(=O)O)cc(CO)cc3s2)OC2CCCC2)cc(OC)c1C` [Compound 103, 2-((2S,3R)-2-(cyclopentyloxy)-3-(3,5-dimethoxy-4-methylphenyl)-3-hydroxypropyl)-6-(hydroxymethyl)benzo[d]thiazole-4-carboxylic acid], in series [1], the 50% inhibitory concentration (IC50) lay within 10 to 100 nM. For the same compound, in series [2], the AUC(0-t) worked out at 1640 ng·h/mL, the highest level (Cmax) was 463 ng/mL and the Tmax was found to be 30 min. Moreover, in series [3] (IV 1 mg/kg), the Cl_obs is 12.9 mL/min/kg and the AUC(0-t) came out at 1330 ng·h/mL. The compound further registered a bioavailability in series [3] of 27.3%. In addition, in series [3] (PO 5 mg/kg), the AUC(0-t) came to 1790 ng·h/mL, the Cmax was found to be 1490 ng/mL and the Tmax turned out to be 15 min.

Turning to `COc1cc([C@@H](O)[C@H](Cc2nc3c(C(=O)O)cc(N(C)C)cc3s2)OC2CCCC2)cc(OC)c1C` [Compound 106, 2-((2S,3R)-2-(cyclopentyloxy)-3-(3,5-dimethoxy-4-methylphenyl)-3-hydroxypropyl)-6-(dimethylamino)benzo[d]thiazole-4-carboxylic acid], the IC50 in series [1] was < 10 nM.

As to `COc1cc([C@@H](O)[C@H](Cc2nc3c(C(=O)O)ccc(OC)c3s2)OC2CCCC2)cc(OC)c1C` [Compound 107, 2-((2S,3R)-2-(cyclopentyloxy)-3-(3,5-dimethoxy-4-methylphenyl)-3-hydroxypropyl)-7-methoxybenzo[d]thiazole-4-carboxylic acid], the IC50 in series [1] is < 10 nM.

As for `CNc1ccc(C(=O)O)n2nc(C[C@H](OC3CCCC3)[C@H](O)c3cc(OC)c(C)c(OC)c3)cc12` [Compound 108, 2-((2S,3R)-2-(cyclopentyloxy)-3-(3,5-dimethoxy-4-methylphenyl)-3-hydroxypropyl)-4-(methylamino)pyrazolo[1,5-a]pyridine-7-carboxylic acid], the IC50 in series [1] was in the range of 10 to 100 nM.

`CNc1cc(C(=O)O)c2nc(C[C@H](OC3CCCC3)[C@H](O)c3cc(OC)c(C)c(OC)c3)sc2c1` [Compound 105, 2-((2S,3R)-2-(cyclopentyloxy)-3-(3,5-dimethoxy-4-methylphenyl)-3-hydroxypropyl)-6-(methylamino)benzo[d]thiazole-4-carboxylic acid]: the IC50 in series [1] was < 10 nM.

Regarding `CCOc1ccc(C(=O)O)c2nc(C[C@H](OC3CCCC3)[C@H](O)c3cc(OC)c(C)c(OC)c3)sc12` [Compound 109], in series [1], the IC50 was < 10 nM.

As for `CCOc1cc(C(=O)O)c2nc(C[C@H](OC3CCCC3)[C@H](O)c3ccc(C(F)F)c(OC)c3)sc2c1` [Compound 112], in series [1], the IC50 lay within 10 to 100 nM.

Regarding `CCOc1ccc(C(=O)O)n2nc(C[C@H](OC3CCCC3)[C@H](O)c3cc(OC)c(C)c(OC)c3)cc12` [Compound 113], the IC50 in series [1] was in the range of 10 to 100 nM.

A word on the IC50: it is the concentration that gives 50% inhibition. A word on the AUC(0-t): it is exposure summed from dosing to a finite time, without extrapolation to infinity. A high value points to more exposure. By Cmax is commonly meant the maximum level reached in the sampled fluid or tissue. In general, Tmax refers to the time from dosing to the highest level. For orientation: bioavailability means the share of a dose that reaches the circulation, judged against a reference dose that is usually intravenous.
